In this data set the test system is cells of the human continuous cell line A549. Format: cell-based. The following applies: 24 h. The source says:
The mass spectrometer 101 used was a non-spatial-resolution MALDI-ToF. Also, the matrix 29 was not true-to-position applied. Thus, the mass spectra 20 represent sum spectra of an entire sample spot 16 and have not been generated according to the invention. In addition, the mass spectra 20 are not spatially resolved. It is intended here, among other things, to clarify the cell-specific mass spectrometric signals 40, the cell-specific mass spectrometric signatures 41, the non-cell-specific mass spectrometric signals 55 and a possible determination of reference values. In particular, the mass spectrum 20 in FIG. 11 (b) is only an approximate example here, since a small residual number of animal cells 23, which were already present before the cultivation step S2 (cell seed), can generate largely weak cell-specific mass spectrometric signals 40. […] The animal cells 23 are cells of the continuous human cell line A549. The complex culture medium DMEN with 10% fetal calf serum (FCS) was used as culture medium. […]
The animal cells 23 are also cells of the human continuous cell line A549. […] Since this example is a sum mass spectrum of the entire sample spot 16 not according to the invention, sporadic weak cell-specific mass spectrometric signals 40 may be detected in this example, which are largely absent when using a spatial resolution mass spectrometer 1. […]

Molecules are shown by their SMILES.

As for `CCCCCCCCCCCCCC[N+](C)(C)C.[Cl-]` [tetradecyltrimethylammonium chloride], the “proliferation of the animal cells in the presence of the cytotoxic factor” value was “no proliferation of the animal cells 23 occurred”.

The values above are taken from patent US20230417738A1, “Mass Spectrometric Determination of Cell Toxicity” (Bruker Daltonics GmbH & Co. KG, priority 2022, published 2023).
